Source: publication PMC11831592, “Repurposing Linezolid in Conjunction with Histone Deacetylase Inhibitor Access in the Realm of Glioblastoma Therapies” (Journal of Medicinal Chemistry, 2025)

Columns and labels:
[1] = system: A172-R TMZ-resistant GBM cell line; assay: MTT cytotoxicity assay, A172-R; assay type: cell-based; details: Homo sapiens, 72 h
Method: We utilized linezolid as the structural foundation to confirm the cytotoxicity of linezolid-conjugated functional domains against glioblastoma (GBM). We combined it with the binding structures of anti-histone deacetylases (HDACs) (denoted as compounds 1–5 and 11–14), antitubulin (compound 6), anticyclooxygenase (COX) (compound 7), and anti-heat shock protein 90 (Hsp90) (compounds 8–10). These constructs were then administered to TMZ-resistant GBM cell lines A172R and PT#3R at concentrations ranging from 0 to 80 μM over 72 h. The cytotoxic effects of these compounds were assessed using the MTT assay (Table 1 and Supporting Information IV). […] Given the remarkable cytotoxicity of compound 1 on both A172-R and PT#3-R TMZ-resistant cells, this study subsequently focused on compound 1 for further in-depth investigation and mechanistic exploration. To validate that the cytotoxic effect of compound 1 on GBM is not attributed to linezolid alone, we separately treated the TMZ-resistant GBM cell line PT#3-R with compound 1 and linezolid. […] This confirms that the cytotoxicity of compound 1 against GBM is primarily attributable to the inhibitory structure of linezolid-conjugated HDAC (Figure 2A). Furthermore, we compared the cytotoxic effects of compound 1 on various wild-type brain tumor cell lines, including U87MG, PT#3, LN229 GBM cells, and CT-2A mouse astrocyte cell line as well as TMZ-resistant variants cell lines, including U87MG-R, PT#3-R, CT-2A-R, and T98G (MGMT-positive). […] Additionally, we further confirmed the efficacy of compound 1 in GBM treatment.
(§1) MTT assay was employed to evaluate the cytotoxicity of the synthesized compound against resistant GBM cells. The MTT (3-(4,5-dimethylthiazol-2-yl)-2,5-diphenyltetrazolium bromide, catalog no. AM0818-0005) powder was purchased from BIONOVAS (Ontario, Canada). The MTT was prepared at 10 mg/mL stock with ultrapure water and then stored at −20 °C. All cells were seeded 2.5 × 10^4 per well in the 24-well plate for 24 h, followed by treating at different concentrations of compounds for 72 h. Before the experiment, the MTT stock was 10-fold diluted with the culture medium and then incubated with cells for 30 min. After the incubation, the MTT medium was discarded and added 300 μL of dimethyl sulfoxide (DMSO, cat. no. D2650, Sigma-Aldrich, MO, USA) to dissolve the cells. Finally, 100 μL of the mixture was transferred to measure the OD 595 nm absorbance.

[2] = system: PT#3-R TMZ-resistant GBM cell line; assay: cells; assay type: cell-based; details: MTT
Method: The cytotoxic effects of these compounds were assessed using the MTT assay (Table 1 and Supporting Information IV).
as §1, with “All cells were seeded 2.5 × 10^4 per well in the 24-well plate for 24 h, followed by treating at different concentrations of compounds for 72 h.” left out, “cells.” for “cells. Finally, 100 μL of the mixture was transferred to measure the OD 595 nm absorbance.”

U87MG = assay: CCK8 cell proliferation assay, U87MG; assay type: cell-based; details: Homo sapiens, U-87 MG, CCK8, 72 h
Method: Cell viability and drug cytotoxicity were determined by a CCK-8 kit (Cell Counting Kit-8, CK04-13, MD, USA) (CCK8, C0005, Target Molecule Corp., MA, USA) reagent. Cells were seeded 2 × 10^3 per well in the 96-well plate for 24 h, followed by treating at different concentrations of compounds for 72 h. Before the experiment, CCK8 was 10-fold diluted with the culture medium and then incubated with cells for 30 min. Finally, the OD was 450 nm absorbance and calculated for cell viability.

Primary Mouse Astrocyte = assay: CCK8 assay, primary culture astrocytes; assay type: cell-based
Method: The human glioblastoma cell lines U87MG (HTB-14), T98G (CRL-1690), and A172 (CRL-1620) were provided by the American Type Culture Collection (Manassas, VA, USA). The patient-derived cell line PT#3 was purified under the approval of the Institutional Review Board of Taipei Medical University (TMU) (No. 201006011). The murine astrocytoma cell line CT-2A (SCC194) was purchased from Merch Millipore (MA, USA). TMZ-resistant cell lines were established as described previously.[40] All cell lines were cultured in Dulbecco’s modified Eagle’s medium basal medium (Cat# 10-013-CM, CORNING, MA, USA), supplemented with 10% fetal bovine serum (Cat# 12676029, Thermo Fisher Scientific, MA, USA), 100 units/mL penicillin, and 100 μg/mL streptomycin (Cat# 15140122, Thermo Fisher Scientific) at 37 °C in the environment of 95% air and 5% carbon dioxide and maintained resistant characteristic with […] of TMZ (Cat# HY-17364, MedChemExpress, NJ, USA). Primary cultured astrocytes and neurons were derived from E17 embryonic mice. […]
Cell viability and drug cytotoxicity were determined by a CCK-8 kit (Cell Counting Kit-8, CK04-13, MD, USA) (CCK8, C0005, Target Molecule Corp., MA, USA) reagent. […] Finally, the OD was 450 nm absorbance and calculated for cell viability.

[3] = system: CT-2A-R astrocytoma cells; assay: Orthotopic CT-2A-R tumor model, IVIS; assay type: in vivo, mouse; details: 50 mg/kg orally
Method: Animals were imaged using an IVIS to monitor tumor growth and target expression changes. Initially, animals were anesthetized with isoflurane prior to imaging to minimize movement artifacts. D-luciferin (150 mg/kg) was then administered via an intraperitoneal injection. After 60 s, animals were positioned on the imaging platform, and images were acquired with a 10-s exposure. Experimental data were collected and quantified for fluorescence or bioluminescence signals by using Living Image software in the IVIS system. After each imaging session, animal ID, imaging parameters, and imaging time were recorded for subsequent analysis.
For orthotopic inoculation, CT-2A cells (1 × 10^5) or CT-2A-R (2 × 10^5) were suspended in 4 μL of DMEM and implanted into the brain of B6 mice. PT#3-R cells (5 × 10^5) were suspended in 4 μL of DMEM and implanted into the brain of SCID mice. After cell implantation, mice were monitored daily for survival, and their body weight was measured every 3 days starting from the seventh day. The oral vehicle consisted of 40% ethyl oleate, 12% lecithin, 20% propylene glycol, and 28% Triton X-100. Mice were administered 5 μL of vehicle per gram of body weight along with 50 mg/kg TMZ or a combination of TMZ and compound 1. Intraperitoneal injections were administered with DMSO (solvent control), TMZ (10 μg/kg), TMZ (10 μg/kg), and compound 1 (10 or 20 μg/kg). […]

O=C(/C=C/c1ccc(CNC[C@H]2CN(c3ccc(N4CCOCC4)c(F)c3)C(=O)O2)cc1)NO [compound 1, (S,E)-3-(4-((((3-(3-Fluoro-4-morpholinophenyl)-2-oxooxazolidin-5-yl)methyl)ami-no)methyl)phenyl)-N-hydroxyacrylamide]
IC50 [1]: 17.4 ± 1.21 µM
IC50 ([2]; Homo sapiens, 72 h): 12.1 ± 1.48 µM
cytotoxic effect on resistant GBM cells ([2]; 20 μM and above): significant cytotoxic effect
IC50 (U87MG): 13.5 ± 0.54 µM
IC50 (Primary Mouse Astrocyte): 143 ± 7.9 µM
growth of orthotopic tumors (IVIS) [3]: effectively inhibited the growth of orthotopic tumors
